Data on 8 compounds can be found in patent US4603209A, “Fluorescent indicator dyes for calcium ions” (priority 1984, dated 1986).

SMILES strings stand for the structures. Read-outs that look alike come from different tables or passages of the source.

For assay [1] the following is noted: cited from earlier work.
Assay [2] can be described thus: Ca2+ titration of dye fluorescence in Ca-EGTA buffers. In kind it is binding. The note with it: for Kd: read-out: Apparent Kd for Ca^2+. The method, then:
The excitation bandwidth was 1.9 nm, the emission was collected at 510 nm with 4.6 nm bandwidth, and the spectra were automatically corrected for excitation lamp and monochromator characteristics using a rhodamine B quantum counter. The titration was done starting with 5 ml of 100 mM KCl, 10 mM KMOPS, 10 mM K2 H2 EGTA, 1 microM fura-2, adjusting the pH to 7.20, recording the spectrum, then discarding 0.5 ml of this solution and replacing with 0.5 ml of 100 mM KCl, 10 mM KMOPS, 10 mM K2 CaEGTA, 1 microM fura-2, readjusting the pH to 7.20, and recording the spectrum which was then in 9 mM K2 H2 EGTA and 1 mM K2 CaEGTA. Subsequent iterations to reach n mM CaEGTA, (10-n) mM EGTA, n=2-10, were done by discarding 5.0/(11-n) ml and replacing with equal volumes of the 10 mM K2 CaEGTA -1 microM fura-2 stock. After n=10 had been reached to give a free Ca^2+ between 10^-4 and 10^-5 M, addition of 1 mM CaCl2 had no further effect on the spectrum. Equality of Ca and EGTA contents in the K2 CaEGTA solution was insured by titration of K2 H2 EGTA with CaCl2 to the potentiometric endpoint measured with a Ca^2+ -selective electrode. EGTA was Fluka Chemical "puriss" grade.
The dye, 6 microM, was titrated in 115 mM KCl, 20 mM NaCl, 10 mM MOPS, 1.115 mM MgCl2, 1.115 mM K2 H2 EGTA, KOH to pH 7.050±0.004, 37° C., to which small aliquots of K2 CaEGTA were added from a micrometer syringe to raise free Ca^2+ to the values labeling each curve, in units of nM unless otherwise specified. Excitation was at 355 nm, and both excitation and emission were set to 5 nm bandwidth. These spectra are not corrected for the emission sensitivity characteristics of the Perkin Elmer MPF-44; in particular the notch at 465 nm is an instrumental artifact. Corrected emission spectra show the low-Ca 485 nm peak to be of very similar amplitude to the high-Ca 404 nm peak when excitation is at 355-356 nm.
Free [Ca^2+ ] levels were controlled by Ca-EGTA buffers assuming apparent dissociation constants for Ca-EGTA of 380 nM at pH 7.00 in 0.1M KCl, 20° C.; 151 nM at pH 7.20 in 0.1M KCl, 20° C.; 214 nM at pH 7.05 in 130 mM KCl, 20 mM NaCl at 37° C.; and 490 nM at pH 7.02 in 225 mM KCl, 25 mM NaCl at 18° C. The first three apparent dissociation constants were calculated from the tables of Martell & Smith (see reference 11) as discussed in referencess 1 and 12. The last value was freshly determined in this study because no appropriate absolute constants were available at the higher ionic strength, and existing estimates in the biological literature (see references 13-17) vary by an unacceptably large range, >0.5 log unit. For this determination we chose the classic and reliable method of pH titration in the presence and absence of excess metal ion (see references 18). Details are included in the METHODS OF SYNTHESIS section, supra.
Dissociation constants for the new indicators disclosed herein, as exemplified by chelators stil-1, stil-2, indo-1, fura-1, fura-2 and fura-3 (see Table I, infra), are in the range 100-300 nM at ionic strengths near 0.1 to 0.15. Such values are close to the dissociation constant (110 nM) of the parent compound BAPTA (see reference 6), showing that the substituents that make up the rest of the chromophores are only slightly electron-withdrawing. […] A considerable decrease in Ca^2+ binding strength is observed, to an apparent dissociation constant of 760 nM. Such a strong dependence on ionic strength is not surprising for the reaction of a tetravalent anion with a divalent cation.
where Kd is the effective dissociation constant. The fluorescence ratio R is the ratio [formula] Solving for [Ca^2+ ] yields the calibration equation: [formula] Note that FA1 /FA2 is simply the limiting value that R can have at zero [Ca^2+ ] and so may be considered Rmin, while FB1 /FB2 is the analogous limiting Rmax that the ratio has at saturating [Ca^2+ ]. […]

Assay [3] is described as follows: Zn2+ titration of dye fluorescence in Zn-EGTA buffer, Hill plots. In kind it is binding. The note with it: for pKZn / Kd: 120 mM KCl, pH 7.12, room temperature; for Kd: read-out: dissociation constant for zinc. The protocol: Heavy metal binding constants were measured as follows. Affinities of stil-1 and fura-2 for Zn^2+ were measured by titrating 1-2 microM dye in 120 mM KCl, 5 mM K2 H2 EGTA, 10 mM MOPS, 5 mM Tris, with 1M ZnCl2 dispensed from a micrometer syringe. […] (see reference 11).
Binding of fura-2 to some of the physiologically more important heavy divalent metals was also briefly examined. Both stil-1 and fura-2 bind zinc with dissociation constants around 1.6-2 nM (pKZn 8.6-8.8). […] Curiously Zn^2+ shifts the fura-2 spectrum the same way that Ca^2+ does, whereas Zn^2+ quenches quin2 and therefore acts oppositely to Ca^2+. Fura-2 is also better than quin2 in rejecting Mn^2+, the Mn^2+ :Ca^2+ preferences being 42-fold and 510-fold respectively (see reference 26). […] A more precise estimate was prevented by experimental scatter, which may reflect more complicated stoichiometry than 1:1 or imperfectly anaerobic conditions. Both Mn^2+ and Fe^2+ quench fura-2 as expected for metals with many unpaired electrons. For comparison, EGTA prefers Zn^2+, Mn^2+, and Fe^2+ to Ca^2+, by factors of ca. 50, ca. 20, and ca. 8-fold respectively (see reference 11).

Assay [4] in a line: Mg2+ titration of dye excitation spectrum in Mg-EGTA buffers. The note with it: 0.1-0.15M ionic strength, read-out: Mg^2+ dissociation constant. The assay is classed as binding. The method, then: An excitation spectrum was recorded of 2 microM fura-2 in 2.5 ml 32 mM KCl, 1 mM EGTA, 10 mM MOPS, adjusted with KOH to pH 7.18 while thermostatted at 20° C. Then 25 microliters of this solution was discarded and replaced by 25 microliters of a solution containing 2 microM fura-2, 104.8 mM MgCl2, 5.8 mM EGTA, 10 mM MOPS, adjusted with KOH to pH 7.18. Since both stocks had 1 mM free EGTA but the latter had 100 mM free Mg, the 99:1 v/v composite went to 1.0 mM free Mg^2+. Further iterations attained 2, 5, 10, and 20 mM free Mg^2+ by successively discarding 25.25, 76.53, 131.6, and 277.8 microliters of the mixture and replacing each with an equal volume of the high-Mg stock. Emission was collected at 510 nm, 4.6 nm bandpass, and excitation 0.9 nm bandpass.
Free [Mg^2+ ] was likewise controlled by Mg-EGTA buffers assuming an apparent dissociation constant for Mg-EGTA of 21 mM at pH 7.18 in 130 mM KCl at 20°, 8.96 mM at pH 7.05 in 130 mM KCl, 20 mM NaCl at 37°, and 99 mM at pH 7.02 in 225 mM KCl, 25 mM NaCl at 18°. Again, the last value was freshly determined in this study.
Binding constants for competing cations were most thoroughly explored for fura-2. […] Therefore fura-2 binds Mg^2+ less strongly than does quin2, whose Mg^2+ dissociation constants are about 1 mM and 2 mM respectively at 37° and ca. 22° (see references 6 and 7). […]

Assay [5] is described as follows: Direct competition between Mn2+ and Ca2+, quenching of dye fluorescence. In kind it is binding. The conditions noted are these: 100 mM KCl, 10 mM KMOPS, pH 7.2, room temperature. The protocol:
(§1) Since Mn^2+ and Fe^2+ quench fura-2, the affinities for these ions relative to Ca^2+ could be assessed by direct competition between the metal ions each in stoichiometric excess. […] Fluorescences of 0.5 microM fura-2 at room temperature were recorded in solutions containing 100 mM KCl, 10 mM KMOPS, pH 7.2. One series also contained 0, 0.1, or 1 mM MnSO4 and 0, 1.1, 2.2, 4.4, or 8.8 mM CaCl2; another series had 2 mM CaCl2 and 0, 0.1, 0.2, 0.5, 1, 2 mM Fe(NH4)2 (SO4)2; and a third series with 0.2 mM Fe(NH4)2 (SO4)2 and 0, 0.2, 0.4, 0.8, 2, 4, and 8 mM CaCl2. Measurements with Fe(II) were made in a cuvet sealed by a septum and continually bubbled with nitrogen; the solutions stayed clear and nearly colorless until the septum was removed after the end of the experiment, whereupon deposition of yellow Fe(OH)3 followed rapidly.
(§2) Binding of fura-2 to some of the physiologically more important heavy divalent metals was also briefly examined. Both stil-1 and fura-2 bind zinc with dissociation constants around 1.6-2 nM (pKZn 8.6-8.8). […] Curiously Zn^2+ shifts the fura-2 spectrum the same way that Ca^2+ does, whereas Zn^2+ quenches quin2 and therefore acts oppositely to Ca^2+. Fura-2 is also better than quin2 in rejecting Mn^2+, the Mn^2+ :Ca^2+ preferences being 42-fold and 510-fold respectively (see reference 26). […]

Assay [6] in a line: Direct competition between Fe2+ and Ca2+, quenching of dye fluorescence. In kind it is binding. The conditions noted are these: 100 mM KCl, 10 mM KMOPS, pH 7.2, under nitrogen. The method, then: as §1, §2
For assay [7] the following is noted: reference 26; cited from earlier work.
For assay [8] the following is noted: cited from earlier work. The source holds these as a separate data set.
The conditions of assay [9]: reference 26; cited from earlier work. The source holds these as a separate data set.
Setting [10] is: 115 mM KCl, 20 mM NaCl, 10 mM KMOPS, pH 7.05, 1 mM free Mg^2+, 37° C.

Consider `O=C(O)CN(CC(=O)O)c1ccccc1OCCOc1ccccc1N(CC(=O)O)CC(=O)O` [BAPTA, 1,2-bis(2-aminophenoxy)ethane N,N,N',N'-tetraacetic acid], for which the Kd in assay [1] (parent compound, reference 6, read-out: dissociation constant (Ca^2+)) is 110 nM; in [1] (reference 6, read-out: Kd (Ca^2+)), 100 nM.

In the case of `Cc1ccc(N(CC(=O)O)CC(=O)O)c(OCCOc2cc3cc(-c4ccc(C(=O)O)cc4)oc3cc2N(CC(=O)O)CC(=O)O)c1` [fura-1, 1-(2-(4-carboxyphenyl)-6-amino-benzofuran-5-oxy)-2-(2'-amino-5'-methylphenoxy)ethane-N,N,N',N'-tetraacetic acid], the Kd in [2] (setting [10]) is 107 nM.

For `Cc1ccc(N(CC(=O)O)CC(=O)O)c(OCCOc2cc3cc(-c4ccc(C#N)cc4)oc3cc2N(CC(=O)O)CC(=O)O)c1` [fura-3, 1-(2-(4-cyanophenyl)-6-aminobenzofuran-5-oxy)-2-(2'-amino-5'-methylphenoxy)ethane-N,N,N',N'-tetraacetic acid], the Kd in assay [2] (setting [10]) was found to be 140 nM.

With `Cc1ccc(N(CC(=O)O)CC(=O)O)c(OCCOc2cc(/C=C/c3ccc(C(=O)O)cc3)ccc2N(CC(=O)O)CC(=O)O)c1` [stil-1], the Kd in [2] (100 mM KCl, 20° C., pH 7.1-7.2) came out at 132 nM. Further, the Kd in assay [2] (setting [10]) stood at 200 nM. In [3], the “Zn^2+:Ca^2+ preference” value is given as “two orders of magnitude”, the pKZn is 8.6-8.8 and the Kd is 1.6 to 2 nM.

Consider `Cc1ccc(N(CC(=O)O)CC(=O)O)c(OCCOc2cc3cc(-c4ncc(C(=O)O)o4)oc3cc2N(CC(=O)O)CC(=O)O)c1` [fura-2, 1-(2-(5'-carboxyoxazol-2'-yl)-6-aminobenzofuran-5-oxy)-2-(2'-amino-5'-methylphenoxy)ethane-N,N,N',N'-tetraacetic acid], for which the Kd in assay [4] (20°) was roughly 9.8 mM. Further, the Kd in [4] (37° C.) is roughly 5.6 mM. Besides, in assay [3], the “Zn^2+:Ca^2+ preference” value is listed as “two orders of magnitude”, the pKZn is on record as 8.6-8.8 and the Kd was in the range of 1.6 to 2 nM. Also, in assay [5], the “Mn^2+:Ca^2+ preference” value is 42 fold. For the same compound, the “Fe^2+ binding strength relative to Ca^2+” value in assay [6] is “between three and ten time”.

For the compound `COc1cc(N(CC(=O)O)CC(=O)O)c2nc(COc3cc(C)ccc3N(CC(=O)O)CC(=O)O)ccc2c1` [quin-2], the Kd in assay [1] (100 mM KCl, 20° C., pH 7.1-7.2, data taken from reference 4, read-out: Apparent Kd for Ca^2+) was 80 nM; in assay [8] (37°, references 6 and 7, read-out: Mg^2+ dissociation constant), roughly 1 mM; in assay [8] (background statement, read-out: dissociation constant for Mg^2+) it was 1 to 2 mM; in assay [8] (ca. 22°, references 6 and 7, read-out: Mg^2+ dissociation constant), roughly 2 mM. Besides, in [7], the “Mn^2+:Ca^2+ preference” value is 510 fold. Besides, the “Zn^2+:Ca^2+ preference” value in [9] is reported as 3.5 orders of magnitude.

As to `Cc1ccc(N(CC(=O)O)CC(=O)O)c(OCCOc2cc(/C=C/c3ccc(S(=O)(=O)N(C)C)cc3)ccc2N(CC(=O)O)CC(=O)O)c1` [stil-2], in assay [2] (100 mM KCl, 37° C., pH 7.08, cis-trans mixture as saponified), the Kd stood at 224 nM.

With `Cc1ccc(N(CC(=O)O)CC(=O)O)c(OCCOc2cc(-c3cc4ccc(C(=O)O)cc4[nH]3)ccc2N(CC(=O)O)CC(=O)O)c1` [indo-1, 1-(2-amino-5-[6-carboxyindolyl-2]-phenoxy)-2-(2'-amino-5'-methylphenoxy)ethane-N,N,N',N'-tetraacetic acid], in assay [2] (FIG. 4 data, emission 400 nm / 490 nm, 115 mM KCl, 20 mM NaCl, pH 7.050, 37° C.), the “Kd from ratio calibration equation 5” value is on record as 250 nM.
